Measured values from patent US20090136968A1, “Novel in vitro methods for studying receptors recognizing volatile compounds” (Chemcom S. A., priority 2005, published 2009).

What was measured:
Type in all cases: cell-based
HEK 293T wt = assay: CCBSA microplate calcium flux on HEK 293T wild type cells (specificity control)
Protocol: A solution of BP including SA, OBP and/or olfactory mucus (see concentration in the text) was incubated in the presence of odorant in a sealed flask for 16 hours at 4° C. (FIG. 3A). Such incubated-BP solution was then used as tested complex on olfactory receptor-expressing cells. Prior to incubation with such complex, cells were incubated for 1 hour with 4 μM Fluo4-AM (Molecular Probe) in the presence of 1 mM probenecid, and then rinsed twice with Fluo4-AM free HBSS buffer. After injection of odorant-BP complex on OR expressing cells, calcium flux was followed by measuring fluorescence at 520 nm ([…]) on FDSS, a plate reader from Hamamatsu Photonics K.K. (Japan) at 25° C.
For this novel assay, mOR-I7 activation was assessed by octanal. A constant volume of olfactory mucus was incubated in the presence of increasing amount of octanal ranging from 0 to 16 μl of a solution of 1M octanal. […] Calcium flux was followed with Fluo4 on FDSS, a plate reader from Hamamatsu Photonics K.K. (Japan).
However this fraction 4 contained two major proteins, bOBP and BSA. […] Calcium-flux was followed on a plate reader (Hamamatsu Photonics K.K., Japan) with fluo4 as fluorescent dye (FIG. 6 A to F). […] Such phenomenon is usually observed in such fluorescence assay when increasing ligand concentrations are injected.

mOR-I7 [1] = target: T1, mOR-I7 (Mus musculus, UniProt Q9QWU6); assay: cAMP level immunoassay (TROPIX) in the novel assay on HEK 293T overexpressing mOR-I7; details: BSA solution incubated with 16 μl of 1 M odorant; 20 minutes incubation
T1 construct: expressed in transfected cells; host or cells: HEK 293T
T1 sequence (Q9QWU6 1-327): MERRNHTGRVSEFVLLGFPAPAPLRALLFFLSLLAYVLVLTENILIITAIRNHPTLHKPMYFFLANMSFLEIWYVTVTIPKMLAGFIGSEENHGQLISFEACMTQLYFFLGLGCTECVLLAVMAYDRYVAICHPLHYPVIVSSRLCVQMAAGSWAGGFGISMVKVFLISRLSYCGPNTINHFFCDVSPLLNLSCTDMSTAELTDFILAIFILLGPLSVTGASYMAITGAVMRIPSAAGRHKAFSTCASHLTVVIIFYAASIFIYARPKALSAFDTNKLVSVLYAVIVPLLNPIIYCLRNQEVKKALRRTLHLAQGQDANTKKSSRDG
Protocol: Similarly to the first step of the fluorescence-based functional assay described above, BP solutions including SA, OBP and/or olfactory mucus (see concentration in the text) were incubated in the presence of odorant in a sealed flask for 16 hours at 4° C. (FIG. 3A). Such odorant-BP complexes were then applied to cultured-cell for 20 minutes at 37° C. cAMP level was then measured using the Tropix kit according to the manufacturer procedures (Applied Biosystem).
As depicted in FIG. 1, binding of odorant molecule to olfactory receptor triggers a cascade of molecular events. In the most commonly accepted pathway, the first second messenger is cAMP synthesized by adenylate cyclase type III. Therefore, a mean to test olfactory receptor activation is to assess variation of cellular cAMP pool after olfactory receptor activation. It is noteworthy that such assay could be performed in parallel to calcium flux assay described above to validate hits obtained during a screening.
Specificity of the novel cell based olfactory functional assay according to the present invention was tested following mOR-I7 activation after injection of these three odorants and two non related odorant, vanilline and piperonyl isobutyrate. Olfactory receptor activation was detected by cellular cAMP pool immunoassay. A solution of BSA was incubated overnight at 4° C.
As discussed above (FIG. 1), activation of olfactory receptor can also be followed through cAMP synthesis. […] Results are expressed as percent of response observed after incubation with 100 μM forskolin, an activator of adenylate cyclases. […] Scheme of the odorant molecules are depicted in FIG. 7E.

mOR-I7 [2] = target: T1, mOR-I7; assay: Single cell calcium imaging (Fura2) on HEK 293T overexpressing mOR-I7, with or without mucus in buffer; details: 500 μM octanal
Protocol: FIG. 2: Bovine olfactory mucus enhances hORL-424 activation by citronellal. (A and B) Calcium measurement was performed after activation of hORL-424 with citronellal in the presence of different amount of bovine olfactory mucus. 0 to 10 μl of mucus (0 to 10 μg of total protein) have been added to assay buffer. Calcium flux has been followed on FDSS (Hamamatsu Photonics K.K. plate reader, Japan) using Fluo4 as fluorescent dye. Histograms represent fluorescent signal observed in the presence or in the absence of 10 μl of bovine olfactory mucus. (C) Concentration response curve of HEK 293T overexpressing hORL-424 treated with citronellal. Gray boxes represent values obtained in the presence of bovine olfactory mucus. Calcium flux measurements have been performed on FDSS (Hamamatsu Photonics K.K. plate reader, Japan). (D and E) Traces obtained during single cell calcium imaging after addition of 500 μM octanal on HEK 293T overexpressing mOR-I7 in the absence (D) or in the presence of 10 μl of bovine olfactory mucus (E). Fura2 was used as fluorescent dye. Results are expressed as F340/F380 ratiometric measurement.
This bovine olfactory mucus property was also observed on a different OR in other assay format. FIGS. 2 D and E show traces obtained from single cell calcium imaging performed on HEK 293T overexpressing mOR-I7 and activated by octanal. In this assay, Fura2 was used as calcium tracer.

mOR-I7 activation by cellular cAMP pool (mOR-I7 [1]): mOR-I7 ligands
mOR-I7 activation (calcium flux) (mOR-I7 [2]; absence of mucus): faint activation
Structure (SMILES): CCCCCCCC=O [octanal]
cell response on wt cells (HEK 293T wt; bovine olfactory mucus incubated with octanal): no cell response
fluorescence in HEK 293T wt (HEK 293T wt; fraction 4 or BSA solution (5×10^−6 M) incubated with 1M octanal): no fluorescence appeared
mOR-I7 activation (calcium flux) (mOR-I7 [2]; presence of 10 μl bovine olfactory mucus, ATP positive control): calcium flux similar to the one observed after addition of ATP
